# From patent US11517016B2, “Agrochemical combinations” (UPL LTD, priority 2017, dated 2022)
# Tests used:
# [1] = tested on: fruit borer; test: Trials of Chlorantraniliprole and Orthosilicic acid on controlling fruit borer; assay type: in vivo; settings: for Percent fruit Borer control Mean: Mean of A-10, B-10, C-10
# Description: Trials were conducted to test the efficacy of the combination of Chlorantraniliprole and Orthosilicic acid on controlling fruit borer at different dosages.
# [2] = tested on: Early Blight; test: Trials of Chlorantraniliprole+Mancozeb+Orthosilicic acid on Early Blight control; assay type: in vivo
# Description: Trials were conducted to test the efficacy of the combination of Chlorantraniliprole+Mancozeb+Orthosilicic acid on Early Blight control: […]
compound,measurement,setting,value
CNC(=O)c1cc(Cl)cc(C)c1NC(=O)c1cc(Br)nn1-c1ncccc1Cl [Chlorantraniliprole],Percent fruit Borer control A-10,[1]; dose 150 gm-ml/ha,73.8%
same,Percent fruit Borer control B-10,[1]; dose 150 gm-ml/ha,85.4%
same,Percent fruit Borer control C-10,[1]; dose 150 gm-ml/ha,87.8%
same,Percent fruit Borer control Mean,[1]; dose 150 gm-ml/ha,82.33%
same,Per Cent Early Blight Control (PDC) A-10,"[2]; T-5, dose 150 gm-ml/ha",04.52%
same,Per Cent Early Blight Control (PDC) B-10,"[2]; T-5, dose 150 gm-ml/ha",02.39%
same,Per Cent Early Blight Control (PDC) C-10,"[2]; T-5, dose 150 gm-ml/ha",02.76%
same,Per Cent Early Blight Control (PDC) Mean,"[2]; T-5, dose 150 gm-ml/ha",3.22%
Orthosilicic acid [OSA],Percent fruit Borer control A-10,[1]; dose 750 gm-ml/ha,2.1%
same,Percent fruit Borer control B-10,[1]; dose 750 gm-ml/ha,3.6%
same,Percent fruit Borer control C-10,[1]; dose 750 gm-ml/ha,4.4%
same,Percent fruit Borer control Mean,[1]; dose 750 gm-ml/ha,3.37%
same,Per Cent Early Blight Control (PDC) A-10,"[2]; T-7, dose 750 gm-ml/ha",9.38%
same,Per Cent Early Blight Control (PDC) B-10,"[2]; T-7, dose 750 gm-ml/ha",11.57%
same,Per Cent Early Blight Control (PDC) C-10,"[2]; T-7, dose 750 gm-ml/ha",13.95%
same,Per Cent Early Blight Control (PDC) Mean,"[2]; T-7, dose 750 gm-ml/ha",11.63%
same,Effect of addition on effectiveness of the combination of chlorantraniliprole+Mancozeb against Early blight,[2]; added to Chlorantraniliprole+Mancozeb,act as synergist
Mancozeb,Per Cent Early Blight Control (PDC) A-10,"[2]; T-6, dose 2000 gm-ml/ha",72.26%
same,Per Cent Early Blight Control (PDC) B-10,"[2]; T-6, dose 2000 gm-ml/ha",77.04%
same,Per Cent Early Blight Control (PDC) C-10,"[2]; T-6, dose 2000 gm-ml/ha",81.17%
same,Per Cent Early Blight Control (PDC) Mean,"[2]; T-6, dose 2000 gm-ml/ha",76.82%
